Source: patent publication US8802597B2, “Herbicidal pyrimidines” (E I du Pont de Nemours and Company, priority 2003, dated 2014)
Read-outs that look alike come from different tables or passages of the source.

Columns and labels:
Format in all cases: in vivo
[1] = system: cocklebur (Xanthium strumarium); assay: Test B pre/postemergence; conditions: Xanthium strumarium; for pest or weed control at 125 g/ha: 125 g ai/ha; for pest or weed control at 500 g/ha: 500 g ai/ha
Procedure, shortened: (§1)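 Plants treated pre- or postemergence were compared visually with controls after 13 to 15 days. Ratings ran from 0, no effect, to 100, complete control.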

[2] = system: Surinam grass (Brachiaria decumbens); assay: Test B pre/postemergence; conditions: Urochloa decumbens; for pest or weed control at 125 g/ha: 125 g ai/ha; for pest or weed control at 500 g/ha: 500 g ai/ha
Procedure, shortened: as §1

[3] = system: crabgrass (Digitaria sanguinalis); assay: Test B pre/postemergence; conditions: Digitaria sanguinalis; for pest or weed control at 125 g/ha: 125 g ai/ha; for pest or weed control at 500 g/ha: 500 g ai/ha
Procedure, shortened: as §1

[4] = system: giant foxtail (Setaria faberii); assay: Test B pre/postemergence; conditions: Setaria faberi; for pest or weed control at 125 g/ha: 125 g ai/ha; for pest or weed control at 500 g/ha: 500 g ai/ha
Procedure, shortened: as §1

[5] = system: pigweed (Amaranthus retroflexus); assay: Test B pre/postemergence; conditions: Amaranthus retroflexus; for pest or weed control at 125 g/ha: 125 g ai/ha; for pest or weed control at 500 g/ha: 500 g ai/ha
Procedure, shortened: as §1

[6] = system: velvetleaf (Abutilon theophrasti); assay: Test B pre/postemergence; conditions: Abutilon theophrasti; for pest or weed control at 125 g/ha: 125 g ai/ha; for pest or weed control at 500 g/ha: 500 g ai/ha
Procedure, shortened: as §1

[7] = system: morningglory (Ipomoea coccinea); assay: Test B pre/postemergence; conditions: Ipomoea; for pest or weed control at 125 g/ha: 125 g ai/ha; for pest or weed control at 500 g/ha: 500 g ai/ha
Procedure, shortened: as §1

[8] = system: wheat (Triticum aestivum); assay: Test B pre/postemergence; conditions: Triticum aestivum; for plant injury at 125 g/ha: 125 g ai/ha; for plant injury at 500 g/ha: 500 g ai/ha
Procedure, shortened: as §1

[9] = system: lambsquarters (Chenopodium album); assay: Test B pre/postemergence; conditions: Chenopodium album; for pest or weed control at 125 g/ha: 125 g ai/ha; for pest or weed control at 500 g/ha: 500 g ai/ha
Procedure, shortened: as §1

corn (Zea mays) = assay: Test B pre/postemergence; conditions: Zea mays
Procedure, shortened: as §1

[10] = system: barnyardgrass (Echinochloa crus-galli); assay: Test B pre/postemergence; conditions: Echinochloa crus-galli; for pest or weed control at 125 g/ha: 125 g ai/ha; for pest or weed control at 500 g/ha: 500 g ai/ha
Procedure, shortened: as §1

rice (Oryza sativa) = assay: Test B flooded paddy test; conditions: Oryza sativa, Flood, 1000 g ai/ha; scale 0 to 100; read-out: Plant response rating, Rice
Procedure, shortened: (§2)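 Visual injury scoring (0 = no effect, 100 = complete control) versus controls made 13 to 15 days after treatment in the greenhouse. Test species were grown in flooded paddy to the 2-leaf stage: rice, barnyardgrass, umbrella sedge, duck salad.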

[11] = system: umbrella sedge (Cyperus difformis); assay: Test B flooded paddy test; conditions: Cyperus difformis, Flood, 1000 g ai/ha; scale 0 to 100; read-out: Plant response rating, Sedge, Umbrella
Procedure, shortened: as §2

[12] = system: duck salad (Heteranthera limosa); assay: Test B flooded paddy test; conditions: Heteranthera limosa, Flood, 1000 g ai/ha; scale 0 to 100; read-out: Plant response rating, Ducksalad
Procedure, shortened: as §2

[13] = system: barnyardgrass (Echinochloa crus-galli); assay: Test B flooded paddy test; conditions: Echinochloa crus-galli, Flood, 1000 g ai/ha; scale 0 (no effect) to 100 (complete control); read-out: Plant response rating, Barnyardgrass
Procedure, shortened: as §2

[14] = system: blackgrass (Alopecurus myosuroides); assay: Test B postemergence; conditions: Alopecurus myosuroides, post-emergence
Procedure, shortened: as §1

wild oat (Avena fatua) = assay: Test B postemergence; conditions: Avena fatua, post-emergence
Procedure, shortened: as §1

COC(=O)c1nc(-c2ccccc2)nc(N)c1Br [Compound 23]
80%: pest or weed control at 500 g/ha ([9]; post-emergence, Postemergence, scale 0 to 100, read-out: Plant response rating, Lambsquarters)
0%: pest or weed control at 125 g/ha ([1]; pre-emergence, Preemergence, scale 0 to 100 (0 no effect, 100 complete control), read-out: Plant response rating, Cocklebur) | pest or weed control at 125 g/ha ([2]; post-emergence, Postemergence, scale 0 to 100 (0 no effect, 100 complete control), read-out: Surinam Grass plant response rating) | pest or weed control at 125 g/ha ([2]; pre-emergence, Preemergence, scale 0 to 100 (0 no effect, 100 complete control), read-out: Plant response rating, Surinam Grass) | pest or weed control at 500 g/ha ([2]; pre-emergence, Preemergence, scale 0 to 100 (0 no effect, 100 complete control), read-out: Surinam Grass plant response rating) | pest or weed control at 125 g/ha ([3]; post-emergence, Postemergence, scale 0 to 100 (0 no effect, 100 complete control), read-out: Crabgrass plant response rating) | pest or weed control at 500 g/ha ([3]; post-emergence, Postemergence, scale 0 to 100, read-out: Plant response rating, Crabgrass) | pest or weed control at 125 g/ha ([3]; pre-emergence, Preemergence, scale 0 to 100 (0 no effect, 100 complete control), read-out: Plant response rating, Crabgrass) | pest or weed control at 500 g/ha ([3]; pre-emergence, Preemergence, scale 0 to 100 (0 no effect, 100 complete control), read-out: Crabgrass plant response rating) | pest or weed control at 125 g/ha ([4]; post-emergence, Postemergence, scale 0 to 100 (0 no effect, 100 complete control), read-out: Foxtail, Giant plant response rating) | pest or weed control at 125 g/ha ([4]; pre-emergence, Preemergence, scale 0 to 100 (0 no effect, 100 complete control), read-out: Plant response rating, Foxtail, Giant) | pest or weed control at 500 g/ha ([4]; pre-emergence, Preemergence, scale 0 to 100 (0 no effect, 100 complete control), read-out: Foxtail, Giant plant response rating) | pest or weed control at 125 g/ha ([5]; pre-emergence, Preemergence, scale 0 to 100 (0 no effect, 100 complete control), read-out: Plant response rating, Pigweed) | pest or weed control at 125 g/ha ([6]; pre-emergence, Preemergence, scale 0 to 100 (0 no effect, 100 complete control), read-out: Plant response rating, Velvetleaf) | pest or weed control at 125 g/ha ([7]; pre-emergence, Preemergence, scale 0 to 100 (0 no effect, 100 complete control), read-out: Plant response rating, Morningglory) | plant injury at 125 g/ha ([8]; post-emergence, Postemergence, scale 0 to 100 (0 no effect, 100 complete control), read-out: Wheat plant response rating) | plant injury at 125 g/ha ([8]; pre-emergence, Preemergence, scale 0 to 100 (0 no effect, 100 complete control), read-out: Plant response rating, Wheat) | plant injury at 500 g/ha ([8]; pre-emergence, Preemergence, scale 0 to 100 (0 no effect, 100 complete control), read-out: Wheat plant response rating) | pest or weed control at 125 g/ha ([9]; pre-emergence, Preemergence, scale 0 to 100 (0 no effect, 100 complete control), read-out: Plant response rating, Lambsquarters) | plant injury at 125 g/ha (corn (Zea mays); post-emergence, Postemergence, 125 g ai/ha, scale 0 to 100 (0 no effect, 100 complete control), read-out: Corn plant response rating) | Corn plant response rating (crop injury, 0 = no effect, 100 = complete kill) at 500 g/ha (corn (Zea mays); post-emergence, Postemergence, 500 g ai/ha, scale 0 to 100) | Corn plant response rating (crop injury, 0 = no effect, 100 = complete kill) at 125 g/ha (corn (Zea mays); pre-emergence, Preemergence, 125 g ai/ha, scale 0 to 100 (0 no effect, 100 complete control)) | plant injury at 500 g/ha (corn (Zea mays); pre-emergence, Preemergence, 500 g ai/ha, scale 0 to 100 (0 no effect, 100 complete control), read-out: Corn plant response rating) | pest or weed control at 125 g/ha ([10]; post-emergence, Postemergence, scale 0 to 100 (0 no effect, 100 complete control), read-out: Barnyardgrass plant response rating) | pest or weed control at 500 g/ha ([10]; post-emergence, Postemergence, scale 0 to 100, read-out: Plant response rating, Barnyardgrass) | pest or weed control at 125 g/ha ([10]; pre-emergence, Preemergence, scale 0 to 100 (0 no effect, 100 complete control), read-out: Plant response rating, Barnyardgrass) | pest or weed control at 500 g/ha ([10]; pre-emergence, Preemergence, scale 0 to 100 (0 no effect, 100 complete control), read-out: Barnyardgrass plant response rating) | plant injury at 1000 g/ha (rice (Oryza sativa)) | pest or weed control at 1000 g/ha [11] | pest or weed control at 1000 g/ha [13] | pest or weed control at 125 g/ha ([14]; 125 g ai/ha, scale 0 to 100 (0 no effect, 100 complete control), read-out: Blackgrass plant response rating)
20%: pest or weed control at 500 g/ha ([5]; pre-emergence, Preemergence, scale 0 to 100 (0 no effect, 100 complete control), read-out: Pigweed plant response rating) | pest or weed control at 500 g/ha ([6]; pre-emergence, Preemergence, scale 0 to 100 (0 no effect, 100 complete control), read-out: Velvetleaf plant response rating) | plant injury at 500 g/ha ([8]; post-emergence, Postemergence, scale 0 to 100, read-out: Plant response rating, Wheat)
90%: pest or weed control at 500 g/ha ([1]; post-emergence, Postemergence, scale 0 to 100, read-out: Plant response rating, Cocklebur)
70%: pest or weed control at 500 g/ha ([5]; post-emergence, Postemergence, scale 0 to 100, read-out: Plant response rating, Pigweed) | pest or weed control at 500 g/ha ([6]; post-emergence, Postemergence, scale 0 to 100, read-out: Plant response rating, Velvetleaf) | pest or weed control at 500 g/ha ([7]; post-emergence, Postemergence, scale 0 to 100, read-out: Plant response rating, Morningglory) | pest or weed control at 125 g/ha ([9]; post-emergence, Postemergence, scale 0 to 100 (0 no effect, 100 complete control), read-out: Lambsquarters plant response rating)
30%: pest or weed control at 125 g/ha ([1]; post-emergence, Postemergence, scale 0 to 100 (0 no effect, 100 complete control), read-out: Cocklebur plant response rating) | pest or weed control at 125 g/ha ([5]; post-emergence, Postemergence, scale 0 to 100 (0 no effect, 100 complete control), read-out: Pigweed plant response rating) | pest or weed control at 500 g/ha ([9]; pre-emergence, Preemergence, scale 0 to 100 (0 no effect, 100 complete control), read-out: Lambsquarters plant response rating) | pest or weed control at 1000 g/ha [12]
10%: pest or weed control at 500 g/ha ([1]; pre-emergence, Preemergence, scale 0 to 100 (0 no effect, 100 complete control), read-out: Cocklebur plant response rating) | pest or weed control at 500 g/ha ([2]; post-emergence, Postemergence, scale 0 to 100, read-out: Plant response rating, Surinam Grass) | pest or weed control at 500 g/ha ([4]; post-emergence, Postemergence, scale 0 to 100, read-out: Plant response rating, Foxtail, Giant) | pest or weed control at 500 g/ha ([7]; pre-emergence, Preemergence, scale 0 to 100 (0 no effect, 100 complete control), read-out: Morningglory plant response rating) | pest or weed control at 500 g/ha ([14]; 500 g ai/ha, scale 0 to 100, read-out: Plant response rating, Blackgrass) | pest or weed control at 125 g/ha (wild oat (Avena fatua); 125 g ai/ha, scale 0 to 100 (0 no effect, 100 complete control), read-out: Oat, Wild plant response rating) | pest or weed control at 500 g/ha (wild oat (Avena fatua); 500 g ai/ha, scale 0 to 100, read-out: Plant response rating, Oat, Wild)
40%: pest or weed control at 125 g/ha ([6]; post-emergence, Postemergence, scale 0 to 100 (0 no effect, 100 complete control), read-out: Velvetleaf plant response rating) | pest or weed control at 125 g/ha ([7]; post-emergence, Postemergence, scale 0 to 100 (0 no effect, 100 complete control), read-out: Morningglory plant response rating)
